Reference: article PMC2671622 (Journal of Experimental Botany, 2009)

Target: truncated recombinant AtGABA-T (no-target GABA-T) (Arabidopsis thaliana, UniProt Q94CE5)
Assay: coupled SSADH assay, NADH at […] nm
Type: biochemical

Chain of truncated recombinant AtGABA-T (no-target GABA-T) (Q94CE5 37-504): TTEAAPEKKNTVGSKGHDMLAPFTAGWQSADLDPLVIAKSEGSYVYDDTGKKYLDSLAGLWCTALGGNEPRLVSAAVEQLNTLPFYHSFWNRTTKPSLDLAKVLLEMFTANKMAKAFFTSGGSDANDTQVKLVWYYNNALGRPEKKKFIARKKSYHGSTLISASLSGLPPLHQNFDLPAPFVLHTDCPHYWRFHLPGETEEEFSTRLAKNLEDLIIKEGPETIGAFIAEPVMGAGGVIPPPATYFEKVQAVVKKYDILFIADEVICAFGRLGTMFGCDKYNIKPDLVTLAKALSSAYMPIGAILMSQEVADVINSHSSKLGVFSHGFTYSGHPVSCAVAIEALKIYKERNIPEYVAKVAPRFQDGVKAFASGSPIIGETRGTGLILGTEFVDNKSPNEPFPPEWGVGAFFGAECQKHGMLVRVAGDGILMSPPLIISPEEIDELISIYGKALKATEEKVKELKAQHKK

Ki	SMILES
3700 ± 460 µM	NCC(=O)O [Glycine]
460 ± 120 µM	NCCC[C@H](N)C(=O)O [Ornithine]
620 ± 160 µM	C=CC(N)CCC(=O)O (stereo not shown) [Vigabatrin]
550 ± 130 µM	NCCC(=O)O [β-Alanine]
